{
  "source": "patent US7932290B2",
  "about": "“Method for the treatment of metabolic disorders” (Wellstat Biologics Corporation, priority 2003, dated 2011)",
  "key": {"[1]": {"tested_on": "db/db mice", "assay": "Antidiabetic effects in db/db mice, Example C (17 days daily oral dosing)", "type": "in vivo, mouse", "conditions": "300 mg/kg daily oral", "excerpt": "(§1) C57BL/Ksola (db/db) mice have a defect in leptin signaling, leading to hyperphagia, obesity and diabetes. Moreover, unlike ob/ob mice on a C57BL/6J background, db/db mice on a C57BLKS background undergo failure of their insulin-producing pancreatic islet cells, resulting in progression from hyperinsulinemia (associated with peripheral insulin resistance) to hypoinsulinemic diabetes.\n(§2) Male obese (db/db homozygote) C57BL/Ksola mice approximately 8 weeks of age, were obtained from Jackson Labs (Bar Harbor, Me.) and sorted into groups of 7 animals each animals such that the body weights (40-45 g) and serum glucose levels (≧300 mg/dl in fed state) were similar between groups. A minimum of 7 days was allowed for adaptation after arrival. All animals were maintained under controlled temperature (23° C.), relative humidity (50±5%) and light (7:00-19:00), and allowed free access to standard chow (Formulab Diet 5008, Quality Lab Products, Elkridge, Md.) and water.\nTreatment cohorts were given daily oral doses of vehicle (1% hydroxypropylmethylcellulose), Compounds BI, CF, CG, or phenylacetate for 17 days. At the end of the treatment period, blood samples were collected and serum glucose and triglycerides were measured."}, "[2]": {"tested_on": "db/db mice", "assay": "Antidiabetic effects in db/db mice, Example B (2 weeks daily oral dosing)", "type": "in vivo, mouse", "excerpt": "as §1, with “db/db” for “C57BL/Ksola (db/db)”, “C57BL/KS” for “C57BLKS”\nas §2, with “randomly assigned” for “sorted”, “5-7” for “7 animals each”, “(50-55” for “(40-45”, “groups; male lean (db/+heterozygote) mice served as cohort controls.” for “groups.”\nTreatment cohorts were given daily oral doses of Vehicle (1% hydroxypropylmethylcellulose), Compounds BI, CE, BT, BV, […] or Fenofibrate for 2 weeks. At the end of the treatment period 100 μl of venous blood was withdrawn in a heparinized capillary tube from the retro-orbital sinus of db/db mice for serum chemistry analysis."}, "[3]": {"molecular_target": "T1, Mouse PPARγ LBD fusion protein (Mus musculus, UniProt P37238)", "T1 sequence (P37238 238-503)": "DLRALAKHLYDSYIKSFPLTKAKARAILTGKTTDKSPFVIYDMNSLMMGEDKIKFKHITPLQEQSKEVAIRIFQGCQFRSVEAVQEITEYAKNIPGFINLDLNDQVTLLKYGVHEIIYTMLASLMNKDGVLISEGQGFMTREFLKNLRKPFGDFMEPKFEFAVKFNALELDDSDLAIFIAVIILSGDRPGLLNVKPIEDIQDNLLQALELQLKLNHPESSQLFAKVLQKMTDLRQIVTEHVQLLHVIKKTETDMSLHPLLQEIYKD", "assay": "Transcription activation potential, GAL4 luciferase reporter in C3A cells", "type": "cell-based", "conditions": "Table 20b", "description": "(§3) Cells were seeded in 24 well plates the day prior to transfection at 5×10^4−2×10^5 cells/well, depending upon cell type. Cells were transfected using Lipofectamine 2000 reagent from Invitrogen. A total of 0.8 μg DNA/well was added to 50 μL of Optimem Reduced Serum media (serum free; Gibco). Lipofectamine 2000 was added (2.5 μL/well) to another tube containing 50 μL of Optimem media. Plasmid DNA was added at a ratio of 4:3 (reporter:activator); where appropriate, salmon sperm DNA was substituted for activator expressing plasmid. […] DNA constructs containing the mouse PPARα or PPARγ LBD fused to the GAL4 DNA binding domain were also used. The two solutions were incubated at room temperature for 5 min, and then combined. The combined solution was incubated at room temperature for approximately 30 min. Cells were washed once with PBS, and 100 μL of transfection mix added to each well. Plates were incubated at 37° C. in a 5% CO2 incubator for 4.5 hr, followed by aspiration of the transfection mix, with plates refed using EMEM complete media (supplemented with 10% FBS, 1× Glutamine). 24 hr post-transfection, plates were treated with the appropriate compounds in EMEM complete media, followed by washing once with PBS and addition of 100 μL 1× reporter lysis buffer/well (Promega) 24 hr after treatment. Plates went through one freeze/thaw cycle prior to analysis. Approximately 10 μL of lysate was added to 100 μL of firefly luciferase substrate, mixed by pipetting, and analyzed on a luminometer for 10 s using the integration function (relative luciferase units/RLU) or on a Microbeta Trilux (luciferase counts per second/LCPS). Each treatment was performed in triplicate, and in multiple, separate experiments."}, "[4]": {"tested_on": "Human PPARγ LBD fusion protein", "assay": "Transcription activation potential, GAL4 luciferase reporter in C3A cells", "type": "cell-based", "description": "as §3"}, "[5]": {"molecular_target": "T2, Human PPARα LBD fusion protein (Homo sapiens, UniProt Q07869)", "T2 construct": "a.a; 167-468)", "T2 sequence (Q07869 167-468)": "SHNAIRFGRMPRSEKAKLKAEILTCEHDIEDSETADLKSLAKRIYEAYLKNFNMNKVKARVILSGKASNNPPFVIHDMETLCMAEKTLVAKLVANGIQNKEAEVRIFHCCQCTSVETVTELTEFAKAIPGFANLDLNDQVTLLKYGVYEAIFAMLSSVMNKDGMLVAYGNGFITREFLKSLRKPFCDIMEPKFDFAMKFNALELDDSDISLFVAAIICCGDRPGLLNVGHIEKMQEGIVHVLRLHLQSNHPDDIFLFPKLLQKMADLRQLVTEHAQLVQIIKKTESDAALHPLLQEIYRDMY", "assay": "Transcription activation potential, GAL4 luciferase reporter in C3A cells", "type": "cell-based", "description": "(§4) Cells were seeded in 24 well plates the day prior to transfection at 5×10^4−2×10^5 cells/well, depending upon cell type. Cells were transfected using Lipofectamine 2000 reagent from Invitrogen. A total of 0.8 μg DNA/well was added to 50 μL of Optimem Reduced Serum media (serum free; Gibco). Lipofectamine 2000 was added (2.5 μL/well) to another tube containing 50 μL of Optimem media. Plasmid DNA was added at a ratio of 4:3 (reporter:activator); where appropriate, salmon sperm DNA was substituted for activator expressing plasmid. The reporter plasmid used was pFR-Luc, which has the firefly luciferase gene under the control of a GAL4 UAS ([…]) containing promoter. The activator expressing plasmids contain yeast GAL4 DNA binding domain (dbd) fusion of either human PPARα ligand binding domain (LBD; a.a. 167-468) or human PPARγ LBD (a.a. 176-479). DNA constructs containing the mouse PPARα or PPARγ LBD fused to the GAL4 DNA binding domain were also used. The two solutions were incubated at room temperature for 5 min, and then combined. The combined solution was incubated at room temperature for approximately 30 min. Cells were washed once with PBS, and 100 μL of transfection mix added to each well. Plates were incubated at 37° C. in a 5% CO2 incubator for 4.5 hr, followed by aspiration of the transfection mix, with plates refed using EMEM complete media (supplemented with 10% FBS, 1× Glutamine). 24 hr post-transfection, plates were treated with the appropriate compounds in EMEM complete media, followed by washing once with PBS and addition of 100 μL 1× reporter lysis buffer/well (Promega) 24 hr after treatment. Plates went through one freeze/thaw cycle prior to analysis. Approximately 10 μL of lysate was added to 100 μL of firefly luciferase substrate, mixed by pipetting, and analyzed on a luminometer for 10 s using the integration function (relative luciferase units/RLU) or on a Microbeta Trilux (luciferase counts per second/LCPS). Each treatment was performed in triplicate, and in multiple, separate experiments."}, "[6]": {"molecular_target": "T3, Mouse PPARα LBD fusion protein (Mus musculus, UniProt P23204)", "T3 sequence (P23204 239-466)": "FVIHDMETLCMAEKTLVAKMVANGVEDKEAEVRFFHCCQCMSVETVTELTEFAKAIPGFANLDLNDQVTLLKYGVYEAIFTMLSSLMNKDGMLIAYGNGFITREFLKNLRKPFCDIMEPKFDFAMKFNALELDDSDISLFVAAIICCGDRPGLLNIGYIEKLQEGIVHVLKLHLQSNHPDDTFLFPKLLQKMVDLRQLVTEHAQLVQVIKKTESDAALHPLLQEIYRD", "assay": "Transcription activation potential, GAL4 luciferase reporter in C3A cells", "type": "cell-based", "conditions": "Table 20a", "description": "as §4"}, "[7]": {"conditions": "serum, 2 weeks daily oral, dose not given in Table 17 (see Table 16)"}},
  "data": [
    {"smiles": "O=C(O)Cc1ccccc1", "note": "[Phenylacetate, reference compound]", "values": [
      {"measurement": "Glucose mg/dL (±SEM)", "setting": "[1]", "value": "661 ± 64", "unit": "mg/dL"},
      {"measurement": "Triglycerides", "setting": "[1]", "value": "171 ± 33", "unit": "mg/dL"}
    ]},
    {"smiles": "Cc1cccc(C)c1COc1cccc(CCCC(=O)O)c1", "note": "[CE, 4-(3-(2,6-Dimethylbenzyloxy)phenyl)butyric acid]", "values": [
      {"measurement": "Glucose (% of Control)", "setting": "[2]; 93 mg/kg daily oral, 2 weeks", "value": "54 ± 8 % of Control"},
      {"measurement": "Glucose", "setting": "[2]; nonfasting, 93 mg/kg daily oral, 2 weeks", "value": "372.0 ± 53.8", "unit": "mg/dL"},
      {"measurement": "Free Fatty Acids ± SEM", "setting": "[2]; [7]", "value": "2867.4 ± 267.7", "unit": "µM"},
      {"measurement": "Triglycerides ± SEM", "setting": "[2]; [7]", "value": "132.0 ± 15.2", "unit": "mg/dL"},
      {"measurement": "transcription activation potential (luciferase) ± standard deviation", "setting": "[3]; 1 μM test compound", "value": "14.3 ± 4.5", "unit": "LCPS"},
      {"measurement": "transcription activation potential (luciferase) ± standard deviation", "setting": "[3]; 3 μM test compound", "value": "13.43 ± 8.5", "unit": "LCPS"},
      {"measurement": "transcription activation potential (luciferase) ± standard deviation", "setting": "[3]; 10 μM test compound", "value": "6.03 ± 3.75", "unit": "LCPS"},
      {"measurement": "transcription activation potential (luciferase) ± standard deviation", "setting": "[3]; 30 μM test compound", "value": "9.6 ± 5.46", "unit": "LCPS"},
      {"measurement": "transcription activation potential (luciferase) ± standard deviation", "setting": "[3]; 100 μM test compound", "value": "11.7 ± 11.7", "unit": "LCPS"},
      {"measurement": "transcription activation potential (luciferase) ± standard deviation", "setting": "[3]; 200 μM test compound", "value": "10.5 ± 9.2", "unit": "LCPS"},
      {"measurement": "transcription activation potential (luciferase) ± standard deviation", "setting": "[4]; 1 μM test compound", "value": "60 ± 11.6", "unit": "LCPS"},
      {"measurement": "transcription activation potential (luciferase) ± standard deviation", "setting": "[4]; 3 μM test compound", "value": "73.3 ± 30.9", "unit": "LCPS"},
      {"measurement": "transcription activation potential (luciferase) ± standard deviation", "setting": "[4]; 10 μM test compound", "value": "57.3 ± 22.6", "unit": "LCPS"},
      {"measurement": "transcription activation potential (luciferase) ± standard deviation", "setting": "[4]; 30 μM test compound", "value": "28.5 ± 16.4", "unit": "LCPS"},
      {"measurement": "transcription activation potential (luciferase) ± standard deviation", "setting": "[4]; 100 μM test compound", "value": "37.7 ± 23.4", "unit": "LCPS"},
      {"measurement": "transcription activation potential (luciferase) ± standard deviation", "setting": "[4]; 200 μM test compound", "value": "12.3 ± 4.8", "unit": "LCPS"},
      {"measurement": "transcription activation potential (luciferase) ± standard deviation", "setting": "[5]; 1 μM", "value": "14.7 ± 14.6", "unit": "LCPS"},
      {"measurement": "transcription activation potential (luciferase) ± standard deviation", "setting": "[5]; 3 μM", "value": "13.2 ± 5.8", "unit": "LCPS"},
      {"measurement": "transcription activation potential (luciferase) ± standard deviation", "setting": "[5]; 10 μM", "value": "26.2 ± 1.4", "unit": "LCPS"},
      {"measurement": "transcription activation potential (luciferase) ± standard deviation", "setting": "[5]; 30 μM", "value": "10.67 ± 1.2", "unit": "LCPS"},
      {"measurement": "transcription activation potential (luciferase) ± standard deviation", "setting": "[5]; 100 μM", "value": "6.33 ± 2.6", "unit": "LCPS"},
      {"measurement": "transcription activation potential (luciferase) ± standard deviation", "setting": "[5]; 200 μM", "value": "12.8 ± 3.7", "unit": "LCPS"},
      {"measurement": "transcription activation potential (luciferase) ± standard deviation", "setting": "[6]; 1 μM", "value": "9.47 ± 2.14", "unit": "LCPS"},
      {"measurement": "transcription activation potential (luciferase) ± standard deviation", "setting": "[6]; 3 μM", "value": "9.57 ± 2.61", "unit": "LCPS"},
      {"measurement": "transcription activation potential (luciferase) ± standard deviation", "setting": "[6]; 10 μM", "value": "1.17 ± 2.49", "unit": "LCPS"},
      {"measurement": "transcription activation potential (luciferase) ± standard deviation", "setting": "[6]; 30 μM", "value": "7.4 ± 0.23", "unit": "LCPS"},
      {"measurement": "transcription activation potential (luciferase) ± standard deviation", "setting": "[6]; 100 μM", "value": "6.13 ± 0.17", "unit": "LCPS"},
      {"measurement": "transcription activation potential (luciferase) ± standard deviation", "setting": "[6]; 200 μM", "value": "8 ± 1.88", "unit": "LCPS"}
    ]}
  ]
}
